This passage reports inhibition results from patent US8119805B2, “Substituted disulfonamide compounds” (Gruenenthal GmbH, priority 2008, dated 2012).

For experiment [1], the target named is T1, B1R receptor of the rat (rB1R) (Rattus norvegicus, UniProt P97583).
T1 construct: expressed in transfected cells; host or cells: CHO K1 cells
T1 sequence (P97583 1-337): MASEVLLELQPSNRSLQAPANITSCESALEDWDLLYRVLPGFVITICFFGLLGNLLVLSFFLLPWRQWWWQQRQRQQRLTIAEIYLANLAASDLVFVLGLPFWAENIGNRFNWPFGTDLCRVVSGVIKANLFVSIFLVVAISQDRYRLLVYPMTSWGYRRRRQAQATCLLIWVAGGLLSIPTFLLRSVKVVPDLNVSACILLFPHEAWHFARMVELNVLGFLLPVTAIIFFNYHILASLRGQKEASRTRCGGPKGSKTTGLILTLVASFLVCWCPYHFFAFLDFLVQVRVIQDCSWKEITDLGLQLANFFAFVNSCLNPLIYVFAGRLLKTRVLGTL
In words: Functional investigation on the bradykinin 1 receptor (B1R), FLIPR Ca2+ assay, rB1R cells. The format is cell-based. To be noted: test substance 10 μM; CHO K1 cells transfected with rat B1R gene; Fluo-4 Ca2+ signal; agonist Des-Arg9-bradykinin at EC80; % of maximum achievable inhibition; read-out: B1R antagonism, rat [10 μM] % inhibition. On the procedure:
(§1) The agonistic or antagonistic action of substances on the bradykinin 1 receptor (B1R) of the human and rat species can be quantified with ectopically expressing cell lines (CHO K1 cells) and with the aid of a Ca^2+-sensitive dyestuff (Fluo-4) in a fluorescent imaging plate reader (FLIPR). The value in % activation is based on the Ca^2+ signal after addition of Lys-Des-[…]-bradykinin (0.5 nM) or Des-[…]-bradykinin (100 nM). Antagonists lead to a suppression of the Ca^2+inflow after addition of the agonist. % inhibition compared with the maximum achievable inhibition is stated. The agonistic or antagonistic action of substances on the bradykinin 1 receptor (B1R) of the human and rat species can be determined with the following assay. In accordance with this assay, the Ca^2+ inflow through the channel is quantified with the aid of a Ca^2+-sensitive dyestuff (type Fluo-4, Molecular Probes Europe BV, Leiden, Holland) in a fluorescent imaging plate reader (FLIPR, Molecular Devices, Sunnyvale, USA). Chinese hamster ovary cells (CHO K1 cells) transfected stably with the human B1R gene (hB1R cells) or the B1R gene of the rat (rB1R cells) are used. For functional studies, these cells are plated out on black 96-well plates with a clear base (BD Biosciences, Heidelberg, Germany or Greiner, Frickenhausen, Germany) in a density of 20,000-35,000 cells/well. The cells are left overnight at 37° C. and 5% CO2 in culture medium (hB1R cells: Nutrient Mixture Ham's F12, Gibco Invitrogen GmbH, Karlsruhe, Germany or DMEM, Sigma-Aldrich, Taufkirchen, Germany; rB1R cells: D-MEM/F12, Gibco Invitrogen GmbH, Karlsruhe, Germany) with 10 vol. % FBS (foetal bovine serum, Gibco Invitrogen GmbH, Karlsruhe, Germany or PAN Biotech GmbH, Aidenbach, Germany). On the following day, the cells are loaded for 60 min at 37° C. with 2.13 μM Fluo-4 (Molecular Probes Europe BV, Leiden Holland) in HBSS buffer (Hank's buffered saline solution, Gibco Invitrogen GmbH, Karlsruhe, Germany) with 2.5 mM probenecid (Sigma-Aldrich, Taufkirchen, Germany) and 10 mM HEPES (Sigma-Aldrich, Taufkirchen, Germany). The plates are then washed 2× with HBSS buffer, and HBSS buffer which additionally contains 0.1% BSA (bovine serum albumin; Sigma-Aldrich, Taufkirchen, Germany), 5.6 mM glucose and 0.05% gelatine (Merck KGaA, Darmstadt, Germany) is added. After a further incubation of 20 minutes at room temperature, the plates are inserted into the FLIPR for the Ca^2+ measurement. Alternatively, the plates are washed with buffer A (15 mM HEPES, 80 mM NaCl, 5 mM KCl, 1.2 mM CaCl2, 0.7 mM MgSO4, 2 g/l glucose, 2.5 mM probenecid), buffer A is added and the plates are loaded with 2.5 μM Fluo-4 and 0.025% Pluronic F127 (Sigma-Aldrich, Taufkirchen, Germany). Thereafter, the cells are washed 2× with buffer A and incubated for 30 minutes at room temperature with buffer A, which additionally contains 0.05% BSA and 0.05% gelatine, and thereafter inserted into the FLIPR for the Ca^2+ measurement. The Ca^2+-dependent fluorescence is measured here before and after addition of substances (λex=488 nm, λem=540 nm). Quantification is by measurement of the highest fluorescence intensity (FC, fluorescence counts) over time. The FLIPR protocol consists of 2 additions of substance. Test substances (10 μM) are first pipetted on to the cells and the Ca^2+ inflow is compared with the control (hB1R: Lys-Des-[…]-bradykinin>=50 nM; rB1R: Des-[…]-bradykinin 10 μM). This gives the result in % activation based on the Ca^2+ signal after addition of Lys-Des-[…]-bradykinin (>=50 nM) or Des-[…]-bradykinin (10 μM). After incubation for 10-20 minutes, Lys-Des-[…]-bradykinin (hB1R) or Des-[…]-bradykinin (rB1R) at the EC80 concentration is applied and the inflow of Ca^2+ is likewise determined. Antagonists lead to a suppression of the Ca^2+ inflow. The percent inhibition compared to the maximum achievable inhibition is calculated. In order to determine the IC50 value, the substances are added in various concentrations. […]

The target in experiment [2] is T2, human B1R receptor (hB1R) (Homo sapiens, UniProt P46663).
T2 construct: expressed in transfected cells; host or cells: CHO K1 cells
T2 sequence (P46663 1-353): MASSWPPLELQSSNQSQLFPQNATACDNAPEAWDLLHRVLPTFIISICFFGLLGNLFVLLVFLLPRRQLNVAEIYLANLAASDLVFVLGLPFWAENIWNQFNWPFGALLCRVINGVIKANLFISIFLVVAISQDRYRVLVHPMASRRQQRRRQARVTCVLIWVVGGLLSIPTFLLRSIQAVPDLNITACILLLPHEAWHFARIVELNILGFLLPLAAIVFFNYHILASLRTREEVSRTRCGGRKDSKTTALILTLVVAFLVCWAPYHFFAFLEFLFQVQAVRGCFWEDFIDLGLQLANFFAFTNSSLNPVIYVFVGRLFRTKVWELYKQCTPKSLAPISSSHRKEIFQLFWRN
In words: Functional investigation on the bradykinin 1 receptor (B1R), FLIPR Ca2+ assay, hB1R cells. The format is cell-based. To be noted: test substance 10 μM; CHO K1 cells transfected with human B1R gene; Fluo-4 Ca2+ signal; agonist Lys-Des-Arg9-bradykinin at EC80; % of maximum achievable inhibition; read-out: B1R antagonism, human [10 μM] % inhibition. As for the experimental part: as §1

Each structure is given as a SMILES string. Counter-ions that a name gives are not always drawn.

Regarding `COc1cc(C)c(S(=O)(=O)N2CCC[C@H]2CCCS(=O)(=O)N2[C@@H]3CC[C@H]2C[C@H](Oc2ccncc2)C3)c(C)c1` [Example 54, (1R,3R,5S)-8-(3-((S)-1-(4-Methoxy-2,6-dimethylphenylsulfonyl)pyrrolidin-2-yl)propylsulfonyl)-3-(pyridin-4-yloxy)-8-azabicyclo[3.2.1]octane], the inhibition (commonly the change of the read-out against control, counted positive when it falls) at 10 µM in experiment [1] came out at 98%; in experiment [2], 100%.
As for `COc1cc(C)c(S(=O)(=O)N2CCC[C@H]2CCCS(=O)(=O)N2CC(N3[C@@H]4CC[C@H]3C[C@H](Oc3ccncc3)C4)C2)c(C)c1` [Example 80, (1R,3s,5S)-8-(1-(3-((S)-1-(4-Methoxy-2,6-ydimethylphenylsulfonyl)pyrrolidin-2-l)propylsulfonyl)azetidin-3-yl)-3-(pyridin-4-yloxy)-8-azabicyclo[3.2.1]octane], the values for the inhibition at 10 µM in experiment [1] and in experiment [2] were 102% and 99%, respectively.
In the same order, the values of `Cc1cc(C)c(S(=O)(=O)N2CCCC2CCCCS(=O)(=O)N2CCN(C3CCN(C)CC3)CC2)c(C)c1` (stereo not shown) [Example 42, 1-(4-(1-(Mesitylsulfonyl)pyrrolidin-2-yl)butylsulfonyl)-4-(1-methylpiperidin-4-yl)piperazine dihydrochloride] are 26% and 50%.
For `CN1CCC(N2CCN(S(=O)(=O)CCC[C@@H]3CCCN3S(=O)(=O)c3cccc(C(F)(F)F)c3)CC2)CC1` [Example 35, (S)-1-(1-Methylpiperidin-4-yl)-4-(3-(1-(3-(trifluoromethyl)phenylsulfonyl)pyrrolidin-2-yl)propylsulfonyl)piperazine], the inhibition at 10 µM in experiment [1] turned out to be 91%; in experiment [2], 23%.
In the same order, the values of `COc1cc(C)c(S(=O)(=O)N2CCC[C@@H]2CCCS(=O)(=O)N2CCN(C3CCN(C)CC3)CC2)c(C)c1` [Example 34, (R)-1-(3-(1-(4-Methoxy-2,6-dimethylphenylsulfonyl)pyrrolidin-2-yl)propylsulfonyl)-4-(1-methylpiperidin-4-yl)piperazine] are 96% and 99%.
The corresponding values for `O=S(=O)(CCC[C@@H]1CCCN1S(=O)(=O)c1cccc2ccccc12)N1[C@@H]2CC[C@H]1C[C@H](Oc1ccncc1)C2` [Example 58, (1R,3R,5S)-8-(3-((S)-1-(Naphthalen-1-ylsulfonyl)pyrrolidin-2-yl)propylsulfonyl)-3-(pyridin-4-yloxy)-8-azabicyclo[3.2.1]octane] are 94% and 56%.
In the same order, the values of `Cc1cc(S(=O)(=O)N2CCC(CCS(=O)(=O)N3CCN(c4ccncc4)CC3)C2)c(C)cc1Cl` (stereo not shown) [Example 23, 1-(2-(1-(4-Chloro-2,5-dimethylphenylsulfonyl)pyrrolidin-3-yl)ethylsulfonyl)-4-(pyridin-4-yl)piperazine] are 78% and 102%.
For the compound `Cc1cccc(Cl)c1S(=O)(=O)N1CCC[C@H]1CCCS(=O)(=O)N1CCC2(CCC(Oc3ccncc3)CC2)CC1` [Example 62, 3-(3-((S)-1-(2-Chloro-6-methylphenylsulfonyl)pyrrolidin-2-yl)propylsulfonyl)-9-(pyridin-4-yloxy)-3-azaspiro[5.5]undecane], the inhibition at 10 µM is 104% in experiment [1] and 84% in experiment [2].
Consider `COc1ccc(S(=O)(=O)N2CCC[C@H]2CCCS(=O)(=O)N2CCC3(CCN(c4ccncc4)CC3)CC2)c2ccccc12` [Example 77, 3-(3-((S)-1-(4-Methoxynaphthalen-1-ylsulfonyl)pyrrolidin-2-yl)propylsulfonyl)-9-(pyridin-4-yl)-3,9-diazaspiro[5.5]undecane], for which the inhibition at 10 µM in experiment [1] was determined as 97%; in experiment [2] it was 81%.
The corresponding values for `COc1cc(C)c(S(=O)(=O)N2CCCC2CCCCS(=O)(=O)N2CCN(C3CCN(C)CC3)CC2)c(C)c1C` (stereo not shown) [Example 7, 1-(4-(1-(4-Methoxy-2,3,6-trimethylphenylsulfonyl)pyrrolidin-2-yl)butylsulfonyl)-4-(1-methylpiperidin-4-yl)piperazine] are 58% and 38%.
For `O=S(=O)(CCC1CCN(S(=O)(=O)c2cc(Cl)c(Cl)cc2Cl)C1)N1CCC(CCN2CCCC2)CC1` (stereo not shown) [Example 18, 4-(2-(Pyrrolidin-1-yl)ethyl)-1-(2-(1-(2,4,5-trichlorophenylsulfonyl)pyrrolidin-3-yl)ethylsulfonyl)piperidine hydrochloride], the inhibition at 10 µM stood at 11% in experiment [1] and 65% in experiment [2].
As for `CN1CCC(N2CCN(S(=O)(=O)CC3CCCCN3S(=O)(=O)c3cccc(C(F)(F)F)c3)CC2)CC1` (stereo not shown) [Example 37, 1-(1-Methylpiperidin-4-yl)-4-((1-(3-(trifluoromethyl)phenylsulfonyl)piperidin-2-yl)methylsulfonyl)piperazine], the inhibition at 10 µM was determined as 40% in experiment [1] and 53% in experiment [2].
The corresponding values for `O=S(=O)(CCC[C@@H]1CCCN1S(=O)(=O)c1cccc2ccccc12)N1CCC(Oc2ccncc2)CC1` [Example 50, (S)-4-(1-(3-(1-(Naphthalen-1-ylsulfonyl)pyrrolidin-2-yl)propylsulfonyl)piperidin-4-yloxy)pyridine] are 71% and 58%.
In the same order, the values of `Cc1cc(C)c(S(=O)(=O)N2CCCC2CCCCS(=O)(=O)N2CCC(CCN3CCCC3)CC2)c(C)c1` (stereo not shown) [Example 6, 1-(4-(1-(Mesitylsulfonyl)pyrrolidin-2-yl)butylsulfonyl)-4-(2-(pyrrolidin-1-yl)ethyl)piperidine] are 44% and 61%.
